Patent US9375005B2, “5-halogenopyrazole indanyl carboxamides” (BAYER CROPSCIENCE AG, priority 2012, dated 2016)
Where two headings read alike, the source gives them in different places.

Key:
Botrytis cinerea = assay: In vivo preventive test on Botrytis cinerea (grey mould); details: dose 500 ppm; gherkin plants sprayed 24 h before contamination; grading 4 to 5 days after contamination
Experimental: Gherkin plants (“Vert petit de Paris” variety), sown in starter cups on a 50/50 peat soil-pozzolana substrate and grown at 24° C., are treated at the Z11 cotyledon stage by spraying with the active ingredient prepared as described above. Plants, used as controls, are treated with the mixture of acetone/tween/DMSO/water not containing the active material. After 24 hours, the plants are contaminated by spraying the cotyledons with an aqueous suspension of cryopreserved Botrytis cinerea spores (50 000 spores per ml). The spores are suspended in a nutrient solution composed of 10 g/L of PDB, 50 g/L of D-Fructose, 2 g/L of NH4NO3 and 1 g/L of KH2PO4. […] Grading (% of efficacy) is carried out 4 to 5 days after the contamination, in comparison with the control plants.

Pyrenophora teres = assay: In vivo preventive test on Pyrenophora teres (net blotch on barley); details: dose 500 ppm; barley plants sprayed 24 h before contamination; grading 14 days after contamination
Summary of the method: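 "Plaisant" barley grown at 22° C, sprayed with active ingredient at the 1-leaf stage, then inoculated 24 h later with 12 000 spores/ml of P. teres. Efficacy (%) graded 14 days post-contamination against solvent-only (acetone/tween/DMSO/water) controls.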

Puccinia recondita = assay: In vivo preventive test on Puccinia recondita (brown rust on wheat); details: dose 500 ppm; wheat plants sprayed 24 h before contamination; grading 12 days after contamination
Experimental: Plants, used as controls, are treated with the mixture of acetone/tween/DMSO/water not containing the active material. After 24 hours, the plants are contaminated by spraying the leaves with an aqueous suspension of Puccinia recondita spores (100 000 spores per ml). […] Grading (% of efficacy) is carried out 12 days after the contamination, in comparison with the control plants.

Uromyces appendiculatus = assay: In vivo preventive test on Uromyces appendiculatus (bean rust); details: dose 500 ppm; bean plants sprayed 24 h before contamination; grading 11 days after contamination
Summary of the method: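 Saxa bean plants grown at 24° C were sprayed at the 2-leaf stage (9 cm) with compound in acetone/tween/DMSO/water; controls got solvent mix only. Leaves inoculated 24 h later with U. appendiculatus spores (150 000 spores/ml). Efficacy (%) graded 11 days post-inoculation versus controls.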

Phakopsora pachyrhizi = assay: In vivo preventive Phakopsora test (soybeans); details: concentration 10 ppm of active ingredient; soybean plants; evaluated 7 days after inoculation
[1] = Measurement of log P values by HPLC on reversed phase columns (EEC directive 79/831 Annex V.A8); assay type: physicochemical; details: method marked [a]
Pyricularia oryzae = assay type: in vivo; details: rice plants sprayed 24 h before contamination, grading 6 days after contamination
Alternaria brassicae = assay: In vivo preventive test on Alternaria brassicae (leaf spot on radish); details: dose 500 ppm; radish plants sprayed 24 h before contamination; grading 6 days after contamination vs control plants
Experimental: Radish plants (“Pernod Clair” variety), sown in starter cups on a 50/50 peat soil-pozzolana substrate and grown at 17° C., are treated at the cotyledon stage by spraying with the active ingredient prepared as described above. Plants, used as controls, are treated with the mixture of acetone/tween/DMSO/water not containing the active material. After 24 hours, the plants are contaminated by spraying the cotyledons with an aqueous suspension of Alternaria brassicae spores (50 000 spores per ml). The spores are collected from a 15-day-old culture. […] Grading (% of efficacy) is carried out 6 days after the contamination, in comparison with the control plants.

Sphaerotheca fuliginea = assay: In vivo preventive test on Sphaerotheca fuliginea (powdery mildew on cucurbits); details: dose 500 ppm; gherkin plants sprayed 24 h before contamination; grading 12 days after contamination
Experimental: Gherkin plants (“Vert petit de Paris” variety), sown in starter cups on a 50/50 peat soil-pozzolana substrate and grown at 24° C., are treated at the Z11 cotyledon stage by spraying with the active ingredient prepared as described above. Plants, used as controls, are treated with the mixture of acetone/tween/DMSO/water not containing the active material. After 24 hours, the plants are contaminated by spraying the cotyledons with an aqueous suspension of Sphaerotheca fuliginea spores (100 000 spores per ml). The spores are collected from infected plants. The contaminated to gherkin plants are incubated at about 20° C. and at 70-80% relative humidity. Grading (% of efficacy) is carried out 12 days after the contamination, in comparison with the control plants.

Septoria tritici = assay: In vivo preventive test on Septoria tritici (leaf spot on wheat); details: dose 500 ppm; wheat plants sprayed 24 h before contamination; grading 24 days after contamination
Experimental: Wheat plants (“Scipion” variety), sown in starter cups on a 50/50 peat soil-pozzolana substrate and grown at 22° C., are treated at the 1-leaf stage (10 cm height) by spraying with the active ingredient prepared as described above. Plants, used as controls, are treated with the mixture of acetone/tween/DMSO/water not containing the active material. After 24 hours, the plants are contaminated by spraying the leaves with an aqueous suspension of cryopreserved Septoria tritici spores (500 000 spores per ml). […] Grading (% of efficacy) is carried out 24 days after the contamination, in comparison with the control plants.

| Structure (SMILES) | Eff. % (Botrytis cinerea) | Eff. % (Pyrenophora teres) | Eff. % (Puccinia recondita) | Eff. % (Uromyces appendiculatus) | Eff. % (Phakopsora pachyrhizi) | logP [1] | Eff. % (Pyricularia oryzae; dose 100 ppm) | Eff. % (Alternaria brassicae) | Eff. % (Pyricularia oryzae; dose 500 ppm) | Eff. % (Sphaerotheca fuliginea) | Eff. % (Septoria tritici) |
| --- | --- | --- | --- | --- | --- | --- | --- | --- | --- | --- | --- |
| CC1CC2(CC2)c2cccc(NC(=O)c3c(C(F)F)nn(C)c3Cl)c21 (centres unmarked) [Example 51] | 94% | 70% | 98% | 100% | 93% | 3.83[a] |  |  |  |  |  |
| Cn1nc(C(F)F)c(C(=O)Nc2cccc3c2C(C)(C)CC3)c1Cl [Example 89] |  |  |  |  |  | 3.53[a] | 93% |  |  |  |  |
| Cn1nc(C(F)F)c(C(=O)Nc2cccc3c2CC(Cc2ccccc2)C3)c1Cl (centres unmarked) [Example 39] |  |  |  | 100% |  | 4.41[a] |  | 79% | 86% |  |  |
| CC1Cc2c(NC(=O)c3c(C(F)F)nn(C)c3Cl)cccc2C1(C)C (centres unmarked) [Example 46] |  | 75% | 100% | 100% | 94% | 4.19[a] |  | 86% | 97% |  |  |
| CC1Cc2c(NC(=O)c3c(C(F)F)nn(C)c3F)cccc2C1(C)C (centres unmarked) [Example 45] |  |  | 100% | 100% |  | 3.94[a] |  |  | 83% | 100% |  |
| CC1c2c(NC(=O)c3c(C(F)F)nn(C)c3F)cccc2C(C)(C)C1C (centres unmarked) [Example 64] | 100% | 97% | 100% | 100% |  | 3.96[a] |  | 100% |  | 100% | 93% |
| CC1CC(C)c2c(NC(=O)c3c(C(F)F)nn(C)c3Cl)cccc21 (centres unmarked) [Example 44] |  |  | 100% | 100% | 98% |  |  |  |  |  |  |
